Laboratory results taken from patent publication US20120324604A1, “PESTICIDAL MIXTURES CONTAINING ISOXAZOLINE DERIVATIVES AND A FUNGICIDE” (priority 2010, published 2012).

Columns and labels:
Format in all cases: cell-based
Pythium ultimum = Pythium ultimum (Damping Off) growth inhibition, microtiter plate, photometric
Procedure: Pythium ultimum (Damping Off):
Mycelial fragments of the fungus, prepared from a fresh liquid culture, were directly mixed into nutrient broth (potato dextrose broth). After placing a (DMSO) solution of the test compounds into a microtiter plate (96-well format) the nutrient broth containing the fungal spores was added.

Rhizoctonia solani = Rhizoctonia solani (Foot Rot, Damping-Off) growth inhibition, microtiter plate, photometric; conditions: applied alone
Procedure: Rhizoctonia solani (Foot Rot, Damping-Off):
Mycelial fragments of the fungus from cryogenic storage were directly mixed into nutrient broth (potato dextrose broth). After placing a (DMSO) solution of the test compounds into a microtiter plate (96-well format) the nutrient broth containing the fungal spores was added.

Botrvtis cinerea = Botrvtis cinerea (Gray Mould) growth inhibition, microtiter plate, photometric; conditions: alone
Procedure: Botrvtis cinerea (Gray Mould):
(§1) Conidia of the fungus from cryogenic storage were directly mixed into nutrient broth (potato dextrose broth). After placing a (DMSO) solution of the test compounds into a microtiter plate (96-well format) the nutrient broth containing the fungal spores was added.

[1] = tested on: Glomerella lagenarium (syn. Colletotrichum lagenarium); assay: Glomerella lagenarium (Anthracnose of Cucurbits) growth inhibition, microtiter plate, photometric; conditions: alone
Procedure: Glomerella lagenarium (syn. Colletotrichum lagenarium), Anthracnose of Cucurbits:
as §1

Septoria tritici = Septoria tritici (Leaf Blotch) growth inhibition, microtiter plate, photometric; conditions: alone
Procedure: Septoria tritici (Leaf Blotch):
as §1

[2] = tested on: Mycosphaerella arachidis (syn. Cercospora arachidicola); assay: Mycosphaerella arachidis (Brown Leaf Spot of Groundnut) growth inhibition, microtiter plate, photometric; conditions: alone
Procedure: Mycosphaerella arachidis (syn. Cercospora arachidicola), Brown Leaf Spot of Groundnut (Peanut):
as §1

Fusarium culmorum = Fusarium culmorum (Root Rot) growth inhibition, microtiter plate, photometric; conditions: single compound, 48 hrs, 24° C.
Procedure: Fusarium culmorum (Root Rot):
as §1

Measured: AVERAGE DEAD IN %

Cc1cc(C2=NOC(c3cc(Cl)cc(Cl)c3)(C(F)(F)F)C2)ccc1C(=O)NC1CS(=O)(=O)C1 (racemic) [A8]
0%: Pythium ultimum; single compound at 0.078125 ppm AI | Pythium ultimum; single compound at 0.15625 ppm AI | Pythium ultimum; single compound at 0.3125 ppm AI | Pythium ultimum; single compound at 0.625 ppm AI | Pythium ultimum; single compound at 1.25 ppm AI | Pythium ultimum; single compound at 2.5 ppm AI | Pythium ultimum; single compound at 5 ppm AI | Pythium ultimum; single compound at 10 ppm AI | Pythium ultimum; single compound at 20 ppm AI | Rhizoctonia solani; 0.0390625 ppm AI | Rhizoctonia solani; 0.078125 ppm AI | Rhizoctonia solani; 0.15625 ppm AI | Rhizoctonia solani; 0.3125 ppm AI | Rhizoctonia solani; 0.625 ppm AI | Rhizoctonia solani; 1.25 ppm AI | Rhizoctonia solani; 2.5 ppm AI | Rhizoctonia solani; 5 ppm AI | Rhizoctonia solani; 10 ppm AI | Rhizoctonia solani; 20 ppm AI | Botrvtis cinerea; 0.078125 ppm AI | Botrvtis cinerea; 0.15625 ppm AI | Botrvtis cinerea; 0.3125 ppm AI | Botrvtis cinerea; 0.625 ppm AI | Botrvtis cinerea; 1.25 ppm AI | Botrvtis cinerea; 2.5 ppm AI | Botrvtis cinerea; 5 ppm AI | Botrvtis cinerea; 10 ppm AI | Botrvtis cinerea; 20 ppm AI | [1]; 0.078125 ppm AI | [1]; 0.15625 ppm AI | [1]; 0.3125 ppm AI | [1]; 0.625 ppm AI | [1]; 1.25 ppm AI | [1]; 2.5 ppm AI | [1]; 5 ppm AI | [1]; 10 ppm AI | [1]; 20 ppm AI | Septoria tritici; 0.0390625 ppm AI | Septoria tritici; 0.078125 ppm AI | Septoria tritici; 0.15625 ppm AI | Septoria tritici; 0.3125 ppm AI | Septoria tritici; 0.625 ppm AI | Septoria tritici; 1.25 ppm AI | Septoria tritici; 2.5 ppm AI | Septoria tritici; 5 ppm AI | Septoria tritici; 10 ppm AI | Septoria tritici; 20 ppm AI | [2]; 0.0390625 PPM AI | [2]; 0.078125 PPM AI | [2]; 0.15625 PPM AI | [2]; 0.3125 PPM AI | [2]; 0.625 PPM AI | [2]; 1.25 PPM AI | [2]; 2.5 PPM AI | [2]; 5 PPM AI | [2]; 10 PPM AI | [2]; 20 PPM AI | Fusarium culmorum; 2.5 PPM AI | Fusarium culmorum; 5 PPM AI | Fusarium culmorum; 10 PPM AI | Fusarium culmorum; 20 PPM AI
